Laboratory results as given in patent US10167299B2, “1-(3-aminopropyl) substituted cyclic amine compounds, preparation method therefor, and pharmaceutical compositions and uses thereof” (SHANGHAI INSTITUTE OF MATERIA MEDICA, CHINESE ACADEMY OF …, priority 2013, dated 2019).
Values after ≈ are worked out from the molar mass of the structure shown. Like-named read-outs stand apart in the source and are kept apart here.

Assays:
[1] = Cytotoxicity (CC50) in TZM-bl cells; assay type: cell-based; conditions: human; TZM-bl cells (Table 3); read-out: CC50
[2] = test system: HIV-1SF162 virus strain; experiment: Inhibition activity on TZM-bl cells infected with HIV-1SF162
[3] = Toxicity test of compounds on PBMC cells (MTT); assay type: cell-based; conditions: human; PBMC cells (Table 4)
Protocol: (§1) The compound to be tested was subject to 5-fold dilution in a 96-well microtiter plate with RPMI-1640 or DMEM complete medium (containing 10% FBS) (Six dilution) triplicate for each dilution and 100 μl for each well. While wells not containing drugs were set as control. Into each well was added 100 μl of 4×10^5/ml PM1, HOS-CD4-CCR5 cells or 100 μl of 5×10^6/ml PHA stimulated PBMC. The cells were cultured at 37° C. with 5% CO2 for three days (PBMC cells were cultured for seven days and 100 μl of fresh RPMI-1640 complete medium was supplemented on the third day). Cytotoxicity was tested with MTT assay. OD values were measured by ELx800 microplate reader. The detection wavelength was 570 nm, and the reference wavelength was 630 nm.

[4] = in vivo; conditions: male, rat
Protocol: (§5) The administration volume was 10 mL/kg and drug was formulated with DMSO/Tween 80/physiological saline (5:5:90, v/v/v). […] 2 h after dosing, the rats ate together.
(§6) At above time points, 0.3 ml of venous blood was taken from retrobulbar venous plexus of the rat and loaded into EDTA-2K anticoagulative tube. After centrifuged at 11000 rpm for 5 mm, the plasma was separated and frozen at −20° C. in a refrigerator.
(§7) The concentration of each compound in rat plasma was determined by LC/MS/MS.
(§8) The pharmacokinetic parameters after administration were calculated by using non-compartment model of WinNonlin 5.3 software (Pharsight Corporation, USA).

[5] = Toxicity test of compounds on HOS-CD4-CCR5 cells (MTT); assay type: cell-based; conditions: human; HOS-CD4+-CCR5 cells (Table 7)
Protocol: as §1

[6] = rat, in vivo; for AUC0-t ng/mL * h: male
Protocol: as §5, §6, §7, §8

[7] = test system: HIV-1KM018 virus strain; experiment: Inhibition of viral replication in PBMC infected with HIV-1KM018; assay type: cell-based
Protocol: (§2) The virus was titrated according to the modified method of Johnson & Byington. Briefly, the HIV-1 stock solution was subject to four-fold dilution in a 96-well plate (ten gradients) sextuplicate for each gradient, while setting six control-wells. Into each well was added 100 μl (5×10^6/ml) PHA-stimulated PBMC cells and final volume per well was 200 μl. The cells were cultured at 37° C. with 5% CO2. […] On the seventh day, the infected supernatant was collected and lysed with 0.5% Triton X100. The p24 antigen was detected by ELISA and TCID50 of virus was calculated according to Reed & Muench method (50% Tissue culture infection dose).
(§3) The starting concentration was 1 μM, six dilutions were obtained, and each well contained 200 μl mixture. While wells not containing drugs were set as control. […] After homogeneously mixed, the mixture was immediately added to 48-well plate containing diluted drug and each well was added with 200 μl of mixture. MVC was used as positive control. The cells were cultured at 37° C. with 5% CO2 for seven days (drug with the same concentration was added on the third day). The supernatant was collected, lysed and inactivated with 0.5% Triton X-100. The inhibition effect of drug on HIV-1 replication was detected using p24 antigen capture ELISA method.

[8] = test system: HIV-1Ba-L virus strain; experiment: Inhibition of viral replication in PBMC infected with HIV-1Ba-L; assay type: cell-based
Protocol: The virus was titrated according to the modified method of Johnson & Byington. Briefly, the HIV-1 stock solution was subject to four-fold dilution in a 96-well plate (ten gradients) sextuplicate for each gradient, while setting six control-wells. Into each well was added 100 μl (5×10^6/ml) PHA-stimulated PBMC cells and final volume per well was 200 μl. The cells were cultured at 37° C. with 5% CO2. On the third day, 100 μl of fresh RPMI-1640 complete medium was supplemented. On the seventh day, the infected supernatant was collected and lysed with 0.5% Triton X100. The p24 antigen was detected by ELISA and TCID50 of virus was calculated according to Reed & Muench method (50% Tissue culture infection dose).
The compound to be tested was subject to 5-fold dilution in 48-well plate with RPMI-1640 complete medium (containing 10% FBS). The starting concentration was 1 μM, six dilutions were obtained, and each well contained 200 μl mixture. While wells not containing drugs were set as control. Virus (MOI=0.01) was added to 5×10^6/ml of PBMC cells which have been stimulated by PHA for 72 h. After homogeneously mixed, the mixture was immediately added to 48-well plate containing diluted drug and each well was added with 200 μl of mixture. MVC was used as positive control. The cells were cultured at 37° C. with 5% CO2 for seven days (drug with the same concentration was added on the third day). The supernatant was collected, lysed and inactivated with 0.5% Triton X-100. The inhibition effect of drug on HIV-1 replication was detected using p24 antigen capture ELISA method.

[9] = test system: HIV-1Ba-L virus strain; experiment: Inhibition of viral replication in HOS-CD4-CCR5 cells infected with HIV-1Ba-L; assay type: cell-based
Protocol: (§4) On the day before the test, 1×10^5/ml of HOS-CD4-CCR5 cells were inoculated in 96-well plates with 100 μl for each well. The compound to be tested was subject to 5-fold dilution in 96-well microtiter plate with DMEM complete medium (containing 10% FBS). The starting concentration was 1 μM and six dilutions were obtained. Triplicate wells were set for each dilution and each well contained 100 μl mixture. While wells not containing drugs were set as control. The supernatant was removed and 100 μl of drug was added and incubated for 2 h. Then 100 μl of HIV-1SF162 and HIV-1Ba-L were added to dilute supernatant. The cells were infected for 1 h, free virus was washed out and drug with the same final concentration was added. MVC was used as positive control. The cells were cultured at 37° C. with 5% CO2 for three days. The supernatant was collected, lysed and inactivated with 0.5% Triton X-100. The inhibition effect of drug on HIV-1 replication was detected using p24 antigen capture ELISA method.

[10] = test system: HIV-1SF162 virus strain; experiment: Inhibition of viral replication in PBMC infected with HIV-1SF162; assay type: cell-based; conditions: Human immunodeficiency virus 1, PBMC
Protocol: as §2, §3

[11] = test system: HIV-1SF162 virus strain; experiment: Inhibition of viral replication in HOS-CD4-CCR5 cells infected with HIV-1SF162; assay type: cell-based; conditions: Human immunodeficiency virus 1, HOS-CD4-CCR5
Protocol: as §4

[12] = Human immunodeficiency virus 1, PBMC

Cc1ccc([C@H](CCN2C3CCC2CC(n2c(C)nnc2C(C)C)C3)NC(=O)C2CCC(F)(F)CC2)s1 (stereo partly drawn) [Compound 29, 4,4-difluoro-N-[(1S)-3-[exo-3-(3-isopropyl-5-methyl-4H-1,2,4-triazol-4-yl)-8-azabicyclo[3.2.1]octane-8-yl]-1-(5-methylthiophen-2-yl)propyl]cyclohexane-1-carboxamide]
CC50 at 3 days [1]: > 200 µg/mL | EC50 ([2]; Human immunodeficiency virus 1, TZM-bl): 0.012 µg/mL (≈ 0.0225 µM) | therapeutic index (TI) ([2]; TZM-bl cells infected with HIV-1SF162): >16666.67 | cytotoxicity in vitro and therapeutic index in words, versus positive control compound ([2]; TZM-bl cells infected with HIV-1SF162, conclusion from Table 3): comparable with the positive control compound | CC50 at 7 days [3]: > 200 µg/mL | bioavailability [4]: 40.1% | AUC(0-inf) ([4]; 10 mg/kg): 2330 ng·h/mL | AUC(0-t) ([4]; 10 mg/kg): 2330 ng·h/mL | Cmax ([4]; 10 mg/kg): 1690 ng/mL | MRT ([4]; 10 mg/kg): 2.29 h | Tmax ([4]; 10 mg/kg): 0.25 h | half-life ([4]; 10 mg/kg): 96 min | AUC(0-inf) ([4]; po, 20 mg/kg): 2790 ng·h/mL | AUC(0-t) ([4]; po, 20 mg/kg): 1870 ng·h/mL | Cmax ([4]; po, 20 mg/kg): 580 ng/mL | MRT ([4]; po, 20 mg/kg): 4.79 h | Tmax ([4]; po, 20 mg/kg): 2 h | half-life ([4]; po, 20 mg/kg): 1970 min | CC50 at 3 days [5]: > 200 µg/mL | AUC0-t ng/mL * h ([6]; 10 mg/kg): 2330.2 ng·h/mL | AUC0-t ng/mL * h ([6]; po, 20 mg/kg): 1870.7 ng·h/mL | CLz ([6]; 10 mg/kg): 4.29 L/h/kg | EC50 [7, 12]: 0.103 µg/mL (≈ 0.193 µM) | therapeutic index (TI) ([7]; PBMC cells infected with HIV-1KM018): 1937.2 | EC50 [8, 12]: 0.236 µg/mL (≈ 0.442 µM) | therapeutic index (TI) ([8]; PBMC cells infected with HIV-1Ba-L): 818.3 | therapeutic index (TI) ([9]; HOS-CD4+-CCR5 cells infected with HIV-1Ba-L): >9144 | EC50 ([9]; Human immunodeficiency virus 1, HOS-CD4-CCR5): 0.0219 µg/mL (≈ 0.041 µM) | EC50 [10]: 5.05 ng/mL (≈ 0.00946 µM) | EC50 [11]: 0.0186 µg/mL (≈ 0.0348 µM)
